Test results published in the CheMixHub viscosity set.
“And” between values parts separate entries of the source, which are not always exact repeats. Identical values can stand only once.

Test: xn = mol fraction of the nth substance listed

COC(C)=O + CC#N
303.15 K, 101.33 kPa
Settings	viscosity [mPa·s]
x2 = 0.1087	0.3472
x2 = 0.1994	0.3482
x2 = 0.3009	0.3485
x2 = 0.4037	0.3481
x2 = 0.4994	0.3474
x2 = 0.5996	0.3461
x2 = 0.7019	0.3429
x2 = 0.7979	0.3376
x2 = 0.9006	0.3322

COc1ccccc1N + CC(=O)O
viscosity [mPa·s], 100 kPa
Settings	x1 = 0.1011	x1 = 0.1745	x1 = 0.2562	x1 = 0.3454	x1 = 0.4852	x1 = 0.5894	x1 = 0.6674	x1 = 0.7458	x1 = 0.8979
303.15 K	1.442	1.732	2.053	2.402	2.947	3.351	3.652	3.953	4.535
308.15 K	1.349	1.618	1.916	2.24	2.745	3.118	3.397	3.676	4.214
313.15 K	1.257	1.505	1.78	2.078	2.541	2.885	3.141	3.397	3.891
318.15 K	1.166	1.394	1.646	1.92	2.346	2.662	2.897	3.132	3.584

COc1ccccc1N + CC(C)(C)O
viscosity [mPa·s], 101 kPa
Settings	x1 = 0.1116	x1 = 0.186	x1 = 0.2667	x1 = 0.3547	x1 = 0.4852	x1 = 0.5945	x1 = 0.6737	x1 = 0.7585	x1 = 0.8979
303.15 K	3.186	3.335	3.499	3.676	3.932	4.141	4.289	4.448	4.714
308.15 K	2.904	3.046	3.199	3.363	3.602	3.797	3.935	4.083	4.327
313.15 K	2.371	2.521	2.681	2.855	3.114	3.333	3.493	3.669	3.962
318.15 K	1.967	2.116	2.277	2.451	2.718	2.95	3.123	3.314	3.639

CCC(C)=O + CC(C)=O
viscosity [mPa·s], 101 kPa
Settings	x1 = 0.2	x1 = 0.4	x1 = 0.6	x1 = 0.8
293.15 K	0.334	0.35	0.365	0.381
313.15 K	0.278	0.29	0.302	0.314

O=C(O)c1ccccc1 + CC(C)=O
viscosity, 101 kPa
Settings	298.15 K	303.15 K	308.15 K	313.15 K	318.15 K
x1 = 0.201	–	–	0.6647 mPa·s	–	0.5884 mPa·s
x1 = 0.2103	0.755 mPa·s	0.7075 mPa·s	0.6647 mPa·s	0.6278 mPa·s	0.5884 mPa·s
x1 = 0.213	–	–	0.6741 mPa·s	–	0.5924 mPa·s
x1 = 0.229	–	0.7776 mPa·s	0.7283 mPa·s and 0.7283 mPa·s	0.6819 mPa·s	0.6407 mPa·s and 0.6407 mPa·s
x1 = 0.247	–	–	0.75 mPa·s	–	0.6571 mPa·s

CCCCCCCC(=O)OCC + CC(C)CCO
100 kPa
Settings	viscosity [mPa·s]
298.15 K, x1 = 0.3	1.885
308.15 K, x1 = 0.5001	1.315
313.15 K, x1 = 0.1	1.845

CCC(C)=O + CC(C)CO
viscosity [mPa·s], 101.3 kPa
Settings	x2 = 0.0854	x2 = 0.1986	x2 = 0.3001	x2 = 0.3904	x2 = 0.4974	x2 = 0.5941	x2 = 0.6983	x2 = 0.7991	x2 = 0.8965
298.15 K	0.423	0.477	0.538	0.613	0.734	0.885	1.13	1.5	2.115
308.15 K	0.38	0.426	0.476	0.535	0.63	0.748	0.933	1.206	1.637
318.15 K	0.344	0.382	0.424	0.473	0.548	0.64	0.781	0.983	1.289

C1CCCCC1 + CC(C)O
303.15 K, 101.33 kPa
Settings	viscosity [mPa·s]
x2 = 0.098	0.8169
x2 = 0.2003	0.8387
x2 = 0.3097	0.8861
x2 = 0.3997	0.9325
x2 = 0.4969	0.9831
x2 = 0.6009	1.063
x2 = 0.7025	1.174
x2 = 0.8004	1.313

COC(C)=O + CC(C)O
298.15 K
Settings	viscosity [mPa·s]
101 kPa, x2 = 0.0988	0.385
101 kPa, x2 = 0.2003	0.416
101 kPa, x2 = 0.3227	0.453
101 kPa, x2 = 0.3967	0.484
101 kPa, x2 = 0.4976	0.53
101 kPa, x2 = 0.666	0.668
101 kPa, x2 = 0.7895	0.933
101 kPa, x2 = 0.7978	0.96
101 kPa, x2 = 0.9011	1.37
101.33 kPa, x1 = 0.0598	1.642
101.33 kPa, x1 = 0.1684	1.101
101.33 kPa, x1 = 0.2671	0.83
101.33 kPa, x1 = 0.3634	0.671
101.33 kPa, x1 = 0.4646	0.571
101.33 kPa, x1 = 0.5621	0.504
101.33 kPa, x1 = 0.6773	0.448
101.33 kPa, x1 = 0.7619	0.417
101.33 kPa, x1 = 0.866	0.394

O=C(O)c1ccccc1 + CC(C)O
viscosity [mPa·s], 101 kPa
Settings	x1 = 0.000601	x1 = 0.00181	x1 = 0.00276	x1 = 0.0042	x1 = 0.00508	x1 = 0.005992
298.15 K	2.579	2.574	2.569	2.562	2.559	2.556
308.15 K	1.932	1.927	1.922	1.916	1.914	1.912
318.15 K	1.496	1.49	1.486	1.481	1.479	1.477
